Data reported in PubChem BioAssay AID248 (DTP/NCI, 2004).
Values joined by “and” are separate entries in the source; they are usually repeats but may differ in a detail not shown here. Identical values can stand only once. Toxic doses and inconclusive results are not listed.

System: L1210 leukemia ip in BDF1 mice, survival T/C
Assay: NCI In Vivo Anticancer Drug Screen. Data for tumor model L1210 Leukemia (intraperitoneal) in B6D2F1 (BDF1) mice
Conditions: endpoint: mean survival time, higher = longer survival
Procedure, shortened: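 Mice bearing the transplanted tumor received compound or vehicle. Survival of the treated group was divided by that of the vehicle-treated control group to give the ratio.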

[1] = dose: 75.0 mg/kg/injection, schedule: Q01DX001 (ip), vehicle: saline
[2] = dose: 150.0 mg/kg/injection, schedule: Q01DX001 (ip), vehicle: saline
[3] = dose: 300.0 mg/kg/injection, schedule: Q01DX001 (ip), vehicle: saline
[4] = dose: 100.0 mg/kg/injection, schedule: Q04DX003 (ip), vehicle: saline sonified
[5] = dose: 200.0 mg/kg/injection, schedule: Q04DX003 (ip), vehicle: saline sonified
[6] = dose: 400.0 mg/kg/injection, schedule: Q04DX003 (ip), vehicle: saline sonified
[7] = dose: 100.0 mg/kg/injection, schedule: Q01DX005 (ip), vehicle: saline
[8] = dose: 200.0 mg/kg/injection, schedule: Q01DX005 (ip), vehicle: saline
[9] = dose: 100.0 mg/kg/injection, schedule: Q01DX009 (ip), vehicle: saline with Tween-80
[10] = dose: 200.0 mg/kg/injection, schedule: Q01DX009 (ip), vehicle: saline with Tween-80
[11] = dose: 50.0 mg/kg/injection, schedule: Q01DX001 (ip), vehicle: saline
[12] = dose: 100.0 mg/kg/injection, schedule: Q01DX001 (ip), vehicle: saline
[13] = dose: 200.0 mg/kg/injection, schedule: Q01DX001 (ip), vehicle: saline
[14] = dose: 400.0 mg/kg/injection, schedule: Q01DX001 (ip), vehicle: saline
[15] = dose: 100.0 mg/kg/injection, schedule: Q01DX001 (ip), vehicle: Klucel (hydroxypropylcellulose) (HPC)
[16] = dose: 200.0 mg/kg/injection, schedule: Q01DX001 (ip), vehicle: Klucel (hydroxypropylcellulose) (HPC)
[17] = dose: 400.0 mg/kg/injection, schedule: Q01DX001 (ip), vehicle: Klucel (hydroxypropylcellulose) (HPC)
[18] = dose: 50.0 mg/kg/injection, schedule: Q04DX003 (ip), vehicle: Klucel (hydroxypropylcellulose) (HPC)
[19] = dose: 100.0 mg/kg/injection, schedule: Q04DX003 (ip), vehicle: Klucel (hydroxypropylcellulose) (HPC)
[20] = dose: 200.0 mg/kg/injection, schedule: Q04DX003 (ip), vehicle: Klucel (hydroxypropylcellulose) (HPC)
[21] = dose: 400.0 mg/kg/injection, schedule: Q04DX003 (ip), vehicle: Klucel (hydroxypropylcellulose) (HPC)
[22] = dose: 100.0 mg/kg/injection, schedule: Q04DX003 (ip), vehicle: saline with Tween-80
[23] = dose: 200.0 mg/kg/injection, schedule: Q04DX003 (ip), vehicle: saline with Tween-80
[24] = dose: 400.0 mg/kg/injection, schedule: Q04DX003 (ip), vehicle: saline with Tween-80
[25] = dose: 100.0 mg/kg/injection, schedule: Q04DX002 (ip), vehicle: Klucel (hydroxypropylcellulose) (HPC)
[26] = dose: 200.0 mg/kg/injection, schedule: Q04DX002 (ip), vehicle: Klucel (hydroxypropylcellulose) (HPC)
[27] = dose: 400.0 mg/kg/injection, schedule: Q04DX002 (ip), vehicle: Klucel (hydroxypropylcellulose) (HPC)

For `COc1ccc2c3c1OC1C(O)CCC4C(C2)N(C)CCC341` (configuration not stated), the T/C [1] was 92 % of control, the T/C (dose: 100.0 mg/kg/injection, schedule: Q01DX001 (ip), vehicle: saline with Tween-80) was 102 % of control and the T/C [2] was 94 % of control. The T/C (dose: 200.0 mg/kg/injection, schedule: Q01DX001 (ip), vehicle: saline with Tween-80) was 102 % of control and the T/C [3] was 101 % of control.

`CCCCCCN(CCCCCC)C(=S)[S-].CCCCCCN(CCCCCC)C(=S)[S-].[Zn]` was tested, and the T/C [1] was 112 % of control, the T/C [2] was 104 % of control and the T/C [3] was 103 % of control.

With `COc1ccc(C=C2c3ccccc3-c3ccccc32)cc1` the T/C [4] was 95 % of control, the T/C [5] was 100 % of control and the T/C [6] was 94 % of control.

For `Cc1cn(C2CC(OS(C)(=O)=O)C(CO)O2)c(=O)[nH]c1=O` (configuration not stated), the T/C [7] was 102 % of control and the T/C [8] was 104 % of control.

`COC(=O)C(C)NC(=O)CNC(=O)OCc1ccccc1` (configuration not stated) was tested, and the T/C [9] was 97 % of control, the T/C [10] was 102 % of control and the T/C (dose: 400.0 mg/kg/injection, schedule: Q01DX009 (ip), vehicle: saline with Tween-80) was 92 % of control.

In the case of `O=c1[nH]cc(/C=N\Nc2ccccc2)c(=O)[nH]1`, the T/C [11] is reported as 97 % of control, the T/C [12] is reported as 101 % of control and the T/C [13] is reported as 101 % of control. The T/C [14] was 101 % of control.

`CC(=O)OCC1OC(N2C(=O)/C(=C/c3ccc4c(c3)OCO4)SC2=S)C(OC(C)=O)C(OC(C)=O)C1OC(C)=O` (configuration not stated) was tested, and the T/C (dose: 12.5 mg/kg/injection, schedule: Q01DX005 (ip), vehicle: other) was 102 % of control, the T/C (dose: 25.0 mg/kg/injection, schedule: Q01DX005 (ip), vehicle: other) was 100 % of control and the T/C (dose: 50.0 mg/kg/injection, schedule: Q01DX005 (ip), vehicle: other) was 96 % of control. For the same molecule, the T/C (dose: 100.0 mg/kg/injection, schedule: Q01DX005 (ip), vehicle: other) was 94 % of control and the T/C (dose: 200.0 mg/kg/injection, schedule: Q01DX005 (ip), vehicle: other) was 94 % of control.

`COc1ccccc1CNCCCO` was tested, and the T/C [11] was 96 % of control, the T/C [12] was 102 % of control and the T/C [13] was 106 % of control. For the same molecule, the T/C [14] was 100 % of control.

With `Cc1cc(S(=O)(=O)O)cc(N)c1N` the T/C [15] was 105 % of control, the T/C [16] was 98 % of control and the T/C [17] was 91 % of control.

`CC(=O)Nc1ccc(S(=O)(=O)N2CC2)cc1` was tested, and the T/C (dose: 50.0 mg/kg/injection, schedule: Q01DX005 (ip), vehicle: saline) was 102 % of control, the T/C [18] was 91 % of control and the T/C [7] was 96 % of control. For the same molecule, the T/C [19] was 102 % of control, the T/C [8] was 102 % of control and the T/C [20] was 95 % of control.

In the case of `O=[N+]([O-])c1cccc(/C=N/n2cn[nH]c2=S)c1`, the T/C [19] is reported as 94 % of control, the T/C [20] is reported as 94 % of control and the T/C [21] is reported as 96 % of control.

In the case of `O=CC(=O)Nc1ccc(C(=O)O)c(O)c1`, the T/C (dose: 100.0 mg/kg/injection, schedule: Q01DX009 (ip), vehicle: Klucel (hydroxypropylcellulose) (HPC)) is reported as 95 % of control, the T/C (dose: 200.0 mg/kg/injection, schedule: Q01DX009 (ip), vehicle: Klucel (hydroxypropylcellulose) (HPC)) is reported as 95 % of control and the T/C (dose: 400.0 mg/kg/injection, schedule: Q01DX009 (ip), vehicle: Klucel (hydroxypropylcellulose) (HPC)) is reported as 98 % of control.

`Cc1ccc(S(=O)(=O)OCC(O)C2OCOC3COCOC32)cc1` (configuration not stated) was tested, and the T/C [15] was 97 % of control and the T/C [16] was 101 % of control.

With `CC1(C)OC2OC(COC(=S)Sc3ccc([N+](=O)[O-])cc3[N+](=O)[O-])C3OC(C)(C)OC3C2O1` (configuration not stated) the T/C (dose: 6.25 mg/kg/injection, schedule: Q04DX002 (ip), vehicle: saline) was 95 % of control, the T/C (dose: 12.5 mg/kg/injection, schedule: Q04DX002 (ip), vehicle: saline) was 98 % of control and the T/C (dose: 25.0 mg/kg/injection, schedule: Q04DX002 (ip), vehicle: saline) was 106 % of control and 91 % of control. The T/C (dose: 50.0 mg/kg/injection, schedule: Q04DX002 (ip), vehicle: saline) was 120 % of control and the T/C (dose: 100.0 mg/kg/injection, schedule: Q04DX002 (ip), vehicle: saline) was 100 % of control.

With `COc1cc(/C=N\Nc2ccccc2[N+](=O)[O-])cc(OC)c1OC` the T/C [22] was 86 % of control, the T/C [23] was 91 % of control and the T/C [24] was 89 % of control.

In the case of `S=C(N/N=C/c1ccc(Cl)cc1Cl)Nc1cccc2cccnc12`, the T/C (dose: 5.0 mg/kg/injection, schedule: Q01DX001 (ip), vehicle: saline) is reported as 96 % of control, the T/C (dose: 10.0 mg/kg/injection, schedule: Q01DX001 (ip), vehicle: saline) is reported as 96 % of control and the T/C (dose: 20.0 mg/kg/injection, schedule: Q01DX001 (ip), vehicle: saline) is reported as 86 % of control. The T/C (dose: 40.0 mg/kg/injection, schedule: Q01DX001 (ip), vehicle: saline) was 98 % of control and the T/C (dose: 80.0 mg/kg/injection, schedule: Q01DX001 (ip), vehicle: saline) was 90 % of control.

In the case of `CCOC(=O)CC(C)(C)CC(=O)C1CNC2=C(C1)C(=O)CC(C)(C)C2` (configuration not stated), the T/C (dose: 100.0 mg/kg/injection, schedule: Q01DX005 (ip), vehicle: Klucel (hydroxypropylcellulose) (HPC)) is reported as 102 % of control, the T/C [25] is reported as 89 % of control and the T/C (dose: 200.0 mg/kg/injection, schedule: Q01DX005 (ip), vehicle: Klucel (hydroxypropylcellulose) (HPC)) is reported as 118 % of control. The T/C [26] was 92 % of control, the T/C (dose: 400.0 mg/kg/injection, schedule: Q01DX005 (ip), vehicle: Klucel (hydroxypropylcellulose) (HPC)) was 91 % of control and the T/C [27] was 97 % of control.

For `Clc1c(Cl)c(CBr)c(Cl)c(CBr)c1Cl`, the T/C (dose: 50.0 mg/kg/injection, schedule: Q01DX009 (ip), vehicle: Klucel (hydroxypropylcellulose) (HPC)) was 104 % of control, the T/C [19] was 103 % of control and the T/C [20] was 109 % of control.

`O=c1[nH]c(=S)c2c3c(sc2[nH]1)CCCC3` was tested, and the T/C [4] was 95 % of control, the T/C [5] was 97 % of control and the T/C [6] was 93 % of control.

`CCc1c(N)nc(=O)[nH]c1C(=O)O` was tested, and the T/C [15] was 115 % of control, the T/C [19] was 96 % of control and the T/C [16] was 118 % of control. The T/C [20] was 100 % of control, the T/C [17] was 117 % of control and the T/C [21] was 104 % of control.

In the case of `CCCCN(c1ccccc1)c1ncnc2c1cnn2C`, the T/C (dose: 50.0 mg/kg/injection, schedule: Q01DX009 (ip), vehicle: saline with Tween-80) is reported as 100 % of control, the T/C [9] is reported as 102 % of control and 104 % of control and the T/C [22] is reported as 97 % of control. For the same molecule, the T/C [10] was 98 % of control and 105 % of control, the T/C [23] was 96 % of control and the T/C [24] was 94 % of control.

With `CC/C(C#N)=C(\C)C1CC1` the T/C (dose: 9.5 mg/kg/injection, schedule: Q01DX001 (ip), vehicle: other) was 96 % of control, the T/C (dose: 19.0 mg/kg/injection, schedule: Q01DX001 (ip), vehicle: other) was 96 % of control and the T/C (dose: 38.0 mg/kg/injection, schedule: Q01DX001 (ip), vehicle: other) was 104 % of control.

For `COC(=O)CSc1nc2ccccc2[nH]1`, the T/C [25] was 104 % of control, the T/C [26] was 100 % of control and the T/C [27] was 100 % of control.

`CN(CC(O)COc1ccccc1)CC1CCCO1` (configuration not stated) was tested, and the T/C (dose: 25.0 mg/kg/injection, schedule: Q04DX003 (ip), vehicle: Klucel (hydroxypropylcellulose) (HPC)) was 98 % of control, the T/C [18] was 97 % of control and the T/C [19] was 95 % of control and 98 % of control.

In the case of `CCCC(C(=O)O)(c1ccccc1)c1ccccc1`, the T/C (dose: 100.0 mg/kg/injection, schedule: Q04DX002 (ip), vehicle: gum acacia) is reported as 96 % of control and the T/C (dose: 200.0 mg/kg/injection, schedule: Q04DX002 (ip), vehicle: gum acacia) is reported as 104 % of control.

For `CN(C)C(=O)c1cc(NC(=O)Nc2ccc(C3=NCCN3)cc2)cc(NC(=O)Nc2ccc(C3=NCCN3)cc2)c1`, the T/C (dose: 15.0 mg/kg/injection, schedule: Q01DX Z (ip), vehicle: saline) was 158 % of control, the T/C (dose: 30.0 mg/kg/injection, schedule: Q01DX Z (ip), vehicle: saline) was 222 % of control and the T/C (dose: 60.0 mg/kg/injection, schedule: Q01DX Z (ip), vehicle: saline) was 250 % of control.
